Data set [1] addresses T1, p38 MAP kinase (Homo sapiens, UniProt Q16539).
T1 construct: made in house; host or cells: E. coli (co-expressed with SEK-1 and MEKK to obtain the phosphorylated form)
Briefly: in vitro inhibition of p-38 (MAP) kinase: transfer of γ-phosphate from γ-33P-ATP to Myelin Basic Protein. It is filed as biochemical. As to conditions: phosphorylated recombinant p38 MAP kinase, MBP substrate, 30° C., read-out: IC50 (p-38 inhibitory activity, concentration causing 50% inhibition of the p-38 enzyme). As for the experimental part: This example illustrate an assay protocol for determining in vitro inhibition of p-38 (MAP) Kinase.
The p-38 MAP kinase inhibitory activity of compounds of this invention in vitro was determined by measuring the transfer of the γ-phosphate from γ-^33P-ATP by p-38 kinase to Myelin Basic Protein (MBP), using the a minor modification of the method described in Ahn, N. G.; et al. J. Biol. Chem. Vol. 266(7), 4220-4227, (1991).
The phosphorylated form of the recombinant p38 MAP kinase was expressed with SEK-1 and MEKK in E. Coli and then purified by affinity chromatography using a Nickel column.
The phosphorylated p38 MAP kinase was diluted in kinase buffer (20 mM 3-(N-morpholino)propanesulfonic acid, pH 7.2, 25 mM β-glycerol phosphate, 5 mM ethylene glycol-bis(beta-aminoethyl ether)-N,N,N′,N′-tetraacetic acid, 1 mM sodium vanadate, 1 mM dithiothreitol, 40 mM magnesium chloride). Test compound dissolved in DMSO or only DMSO (control) was added and the samples were incubated for 10 min at 30° C. The kinase reaction was initiated by the addition of a substrate cocktail containing MBP and γ-^33P-ATP. After incubating for an additional 20 min at 30° C., the reaction was terminated by adding 0.75% phosphoric acid. The phosphorylated MBP was then separated from the residual γ-^33P-ATP using a phosphocellulose membrane (Millipore, Bedford, Mass.) and quantitated using a scintillation counter (Packard, Meriden, Conn.).
Compounds of the invention were active in this assay. The p-38 inhibitory activities (expressed as IC50 , the concentration causing 50% inhibition of the p-38 enzyme being assayed) of some compounds of the invention are: […]

Structures are written as SMILES. Where a name gives a salt, the structure may show the parent alone.

T1 sequence (Q16539 whole entry): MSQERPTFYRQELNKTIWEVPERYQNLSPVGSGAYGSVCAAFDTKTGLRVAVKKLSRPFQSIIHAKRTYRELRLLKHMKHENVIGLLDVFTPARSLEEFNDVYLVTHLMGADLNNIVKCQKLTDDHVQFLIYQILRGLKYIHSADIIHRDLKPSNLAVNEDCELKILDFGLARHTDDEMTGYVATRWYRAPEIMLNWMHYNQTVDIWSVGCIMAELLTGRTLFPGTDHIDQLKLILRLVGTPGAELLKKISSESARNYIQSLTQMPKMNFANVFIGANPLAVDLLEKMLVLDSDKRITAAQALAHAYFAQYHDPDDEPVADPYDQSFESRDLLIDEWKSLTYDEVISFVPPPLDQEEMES

Turning to `Cl.O=C(O)CN1CCC(CNc2ncc3cc(-c4ccccc4Cl)c(=O)[nH]c3n2)CC1` [Cpd 3], the melting point fell in the range of 235.3 to 237.9 °C. Also, in data set [1], the IC50 was 2200 nM. Turning to `Cn1c(=O)c(-c2ccccc2Cl)cc2cnc(NC(C)(C)CO)nc21` (as salt: HCl) [Cpd 1], the melting point is 228.6 to 228.9 °C. Regarding `C[C@H](Nc1ncc2cc(-c3ccccc3Cl)c(=O)n(C3CC3)c2n1)C(C)(C)O` [Cpd 12], the IC50 in data set [1] was determined as 124 nM. Take `Cn1c(=O)c(-c2ccccc2Cl)cc2cnc(N[C@H](CO)C(C)(C)C)nc21` [Cpd 18]: the melting point was in the range of 171.2 to 174 °C. Further, the IC50 in data set [1] came out at 92 nM. `C[C@@H](Nc1ncc2cc(-c3ccccc3Cl)c(=O)n(-c3ccc(F)cc3)c2n1)C(C)(C)O` [Cpd 6] displayed a melting point of 206.8 to 207.5 °C.

The molecule `CN(C)C(=O)CN1CCC(CNc2ncc3cc(-c4ccccc4Cl)c(=O)[nH]c3n2)CC1.Cl` [Cpd 4] returned a melting point of 211.8 to 212.8 °C. In data set [1], the IC50 is 6270 nM.

Take `COCCC(C)Nc1ncc2cc(-c3ccccc3Cl)c(=O)n(C)c2n1.Cl` (stereo not shown): the melting point is 156.4 to 160.2 °C.

The molecule `C[C@H](Nc1ncc2cc(-c3ccccc3Cl)c(=O)n(-c3ccc(F)cc3)c2n1)C(C)(C)O` (as salt: HCl) [Cpd 7] showed a melting point of 142 to 149 °C. On to `Cn1c(=O)c(-c2ccccc2Cl)cc2cnc(NC(C)(C)CO)nc21` [Cpd 1], for which, in data set [1], the IC50 amounted to 52 nM. Molecule `C[C@H](Nc1ncc2cc(-c3ccccc3Cl)c(=O)n(C)c2n1)C(C)(C)O` (as salt: HCl) [Cpd 8] returned a melting point of 178 to 181.5 °C. Still for that read-out and setting: in the case of `C[C@H](Nc1ncc2cc(-c3ccccc3Cl)c(=O)n(C)c2n1)C(C)(C)O.Cl` it was 194 to 195.3 °C.

Molecule `C[C@H](Nc1ncc2cc(-c3ccccc3Cl)c(=O)n(N)c2n1)C(C)(O)O.Cl` gave a melting point greater than 300 °C. The molecule `COC(=O)CN1CCC(CNc2ncc3cc(-c4ccccc4Cl)c(=O)[nH]c3n2)CC1.Cl` displayed a melting point of 220 to 221.1 °C.

Take `Nn1c(=O)c(-c2ccccc2Cl)cc2cnc(NC3CCCC3)nc21` [Cpd 11]: the melting point is 147 to 154 °C. Besides, the IC50 in data set [1] is 24 nM. For the molecule `Cl.Cn1c(=O)c(-c2ccccc2Cl)cc2cnc(NC3CCC3)nc21` [Cpd 10], the melting point lay in the range of 205.3 to 210.9 °C. In data set [1], the IC50 is 42 nM. Regarding `C[C@H](Nc1ncc2cc(-c3ccccc3Cl)c(=O)n(-c3ccc(F)cc3)c2n1)C(C)(C)O` [Cpd 7], the IC50 in data set [1] came out at 0.3 nM. `CC(Nc1ncc2cc(-c3ccccc3Cl)c(=O)n(C)c2n1)C(C)S(C)(=O)=O.Cl` (stereo not shown): the melting point lay in the range of 142.1 to 144.3 °C. For `CN1CCC(CNc2ncc3cc(-c4ccccc4Cl)c(=O)[nH]c3n2)CC1.Cl`, the melting point was 213 to 220 °C. Regarding `CC(C)(CO)Nc1ncc2cc(-c3ccccc3Cl)c(=O)n(N)c2n1` [Cpd 13], in data set [1], the IC50 came out at 48 nM. For the molecule `C[C@H](Nc1ncc2cc(-c3ccccc3Cl)c(=O)n(C)c2n1)C(C)(C)O` [Cpd 8], the IC50 in data set [1] was 31 nM.

For the origin of these results see patent US6518276B2, “7-oxo-pyridopyrimidines (II)” (Syntex (U.S.A.) LLC, priority 2000, dated 2003).
